Peptide text beside a SMILES is read from it.
Legend:
[1] = cited from earlier work
[2] = system: uninduced BL21 Star cells; assay: Screening of detergents: lysis of uninduced cell cultures analysed by PAGE; assay type: cell-based, E. coli; conditions: for lysis of uninduced BL21 Star cells by PAGE (FIG. 1) / lysis capabilities by PAGE (FIG. 2) / lysis performance: 1% detergent in 50 mM phosphate; for lysis of uninduced BL21 Star cells by PAGE (FIG. 1) / lysis performance: 300 mM NaCl pH 7; for lysis capabilities by PAGE (FIG. 2): 300 mM NaCl pH=7, alkyl chain length 9-11; for lysis performance: compared with BugBuster; for lysis of bacterial cells: 1% detergent in 50 mM phosphate pH 7, uninduced cell cultures, compared with BugBuster and B-Per
Procedure: (§1) Cultures were grown to OD600=1.2-1.5 and then collected for lysis. One ml of culture was subjected to centrifugation (10,000×g) and lysed in 75 to 100 μl of each lysis buffer depending on optical density (OD). In some samples 10 μl of 1:100 dilution of BENZONASE® nuclease (Benzon Pharma A/S) and 10 μl of 0.5 mg/ml Lysozyme were added. Samples were allowed to incubate at room temperature for approximately 10 minutes, then spun down at 10,000×g. Supernatant was pipetted and used for subsequent activity assays and SDS-PAGE analysis. For BL21 (DE3) pLysS cultures, 2 independent lysates of each culture with and without lysozyme were prepared and tested.
(§2) For gel electrophoresis, 15 μL of each lysate was incubated with 5 μl of 4× LDS Sample buffer and 2 μl of NuPage Reducing reagent in a 70° C. heat block for 10 minutes. 5 μl of the samples were run on 4-12% NuPAGE gels (Invitrogen cat # NP0321 or NP0323) with MES SDS running buffer. SDS-PAGE gels were stained with SimplyBlue Safe Stain (Invitrogen cat# LC6065).
Screening of a wide range of detergents was performed by evaluating the lysis of uninduced cell cultures. For the first round of screening, detergents from different chemical groups were evaluated starting with some well-known detergents such as Triton X-100, Elugent, NP-7, NP-40. The lysis buffers were prepared at 1% detergent concentration in 50 mM phosphate pH 7. The detergents were compared with known lysis procedures using BugBuster® lysis reagent (Novagen), B-Per™ protein extraction reagent (Pierce), Relay 96 Protein Screen (Invitrogen), and sonication.
Other types of detergents also screened were ASB-C8 and three other synthesized sulfobetaine detergents: SB-A, SB-B, and SB-C, as well as APO-8, APO-10, APO-12 and N-dodecanoyl sucrose as 1% detergent solutions in 50 mM phosphate, 300 mM NaCl pH 7) using BL21 Star cells. […] Lane 1 is a Mark 12 Molecular Weight Standard; lane 2 is a 1% SB-A lysis solution; lane 3 is a 1% ASB-C8 lysis solution; lane 4 is a 1% SB-B lysis solution; lane 5 is a 1% SB-C lysis solution; lane 6 is a 1% APO-8 lysis solution; lane 7 is a 1% APO-10 lysis solution; lane 8 is a 1% APO-12 lysis solution; lane 9 is a 1% N-Dodecanoyl Sucrose lysis solution and lane 10 is BugBuster® HT lysis reagent. […] It is likely that the length of the alkyl chain is critical for the lysis ability of the detergent. Therefore, another round of testing was performed with detergents of the same type with alkyl chains one […] smaller and bigger than APO-10. […] One percent detergent formulations were prepared in 50 mM phosphate, 300 mM NaCl pH=7. In FIG. 2, Lane 1 is a Mark 12 Molecular Weight Standard; lane 2 is BugBuster® HT; lane 3 is a 1% APO-9 lysis solution; lane 4 is a 1% APO-10 lysis solution and lane 5 is a 1% APO-11 lysis solution.

[3] = system: BL-21-AI, BL-21-Star, BL-21 DE3; assay: Side by side comparison of alkylglucoside and alkylphosphine detergents as lysis reagents; assay type: cell-based, E. coli; conditions: several cell types: BL-21-AI
Procedure: as §1, §2
Side by side comparison testing was performed of the alkylglucoside and alkylphosphine detergents with several different cell types: BL-21-AI, BL-21-Star, BL-21 DE3. In this comparison testing BugBuster® HT lysis reagent (Novagen), B-Per™ protein extraction reagent (Pierce), n-octyl-β-D-glucopyranoside, n-nonyl-β-D-glucopyranoside, and n-octyl-β-D-thioglucopyranoside, APO-9 and APO-10 were utilized. […] Further optimization and testing was concentrated on the use of APO detergents by themselves and in combination with other detergents.

[4] = system: BL21-AI cells expressing GFP; assay: Lysis of cells expressing GFP, fluorescence of lysate; assay type: cell-based, E. coli; conditions: 0.5% in 50 mM Tris pH=7; normalized to BugBuster; average of multiple treatments
Procedure: (§3) E. coli strain BL21 cells were transformed with plasmids expressing β-galactosidase, green fluorescent protein (GFP) or maltose binding protein (MBP) as follows. BL21-AI were transformed with pET 100 expressing n-terminal 6×His tagged GFP or n-terminally 6×His tagged LacZ (β-galactosidase). The cells were grown at 37° C. to OD600=0.4-0.5 and then induced with 1 mM IPTG and 0.1% arabinose. The expression was performed for 2-4 hours at 37° C. BL21 Star cells were transformed with plasmid expressing MBP. The cells were grown at 37° C. to OD600=0.4-0.5 and then induced with 1 mM IPTG. Protein expression was performed at 30° C. for 2-4 hours. […]
(§4) GFP activity was determined by reading fluorescence (Excitation at 395/Emission […]) of lysates (diluted 1:20 or 1:40 in 50 mM Phosphate pH 7). The raw data was recorded. LacZ activity was determined by using the β-galactosidase assay kit (IVGN cat # K1455-01). The lysate samples were diluted 1:100 and then analyzed as described in the kit manual. Results were obtained using OD420 readings in the following equation: nmoles of ONPG hydrolyzed/μL lysate=(OD420background) (1.92×10^5 nl)(dilution factor=100) (4500 nl/nmoles-cm)×(1 cm) Data was normalized to the reading received from a control sample prepared with BugBuster® or BugBuster® HT (Novagen) lysis reagents. […]

[5] = system: BL21- AI cells expressing β-galactosidase; assay: Lysis of cells expressing β-galactosidase, β-galactosidase activity of lysate; assay type: cell-based, E. coli; conditions: 0.5% APO detergent formulation; lysozyme in the lysis buffer
Procedure: as §3, §4

BL21 Star cultures = assay: MBP extraction evaluated qualitatively by SDS PAGE; assay type: cell-based, E. coli; conditions: qualitative
Procedure: as §3, with “hours. BL-21(DE3) and BL-21(DE3)pLysS cells were transformed with vector expressing N-terminally 6×His tagged LacZ (β-galactosidase) (pET 100 lacZ-IVGN cat# K100-01), N-terminal Lumio tag (Cys-Cys-Pro-Gly-Cys-Cys) and 6×His tagged Lac-Z (pET 160 LacZ), and N-terminal Lumio tag (Cys-Cys-Pro-Gly-Cys-Cys) and 6×His tagged GFP (pET 160 GFP).” for “hours.”
Following preliminary screening, more detailed testing was performed using GFP, β-galactosidase and MBP expressed in E. coli. […] The activity of the β-galactosidase was measured using the β-galactosidase activity kit (Invitrogen) as described above. The GFP activity (native state) was tested by measuring the fluorescence of the protein as described above. MBP extraction was evaluated qualitatively by SDS PAGE gel electrophoresis.

For `NC(=O)CN(CC(=O)O)CC(=O)O` [ADA], the “pKa(4° C.)” value [1] is given as 6.80, the “pKa(20° C.)” value [1] is given as 6.60 and the “pKa(37° C.)” value [1] is given as 6.43. The “Temperature Coefficient (↑pKa/° C.)” value [1] was 0.011 ↑pKa/° C.

With `CCCCCCCCP(C)(C)=O` [APO-8, Dimethyloctylphosphine oxide] the “lysis of uninduced BL21 Star cells by PAGE (FIG. 1)” value (“lysis of uninduced BL21 Star cells” below) [2] was “did not lyse the cells efficiently”.

With `CCCCCCCCCP(C)(C)=O` [APO-9, Dimethylnonylphosphine oxide] the “lysis capabilities by PAGE (FIG. 2)” value [2] was “optimal lysis capabilities” and the “performance as lysis reagent” value [3] was “performed well”.

For `CCCCCCCCCCP(C)(C)=O` [APO-10, Dimethyldecylphosphine oxide], the “lysis of uninduced BL21 Star cells” value [2] was “performed very well”, the “lysis capabilities by PAGE (FIG. 2)” value [2] was “optimal lysis capabilities” and the “performance as lysis reagent” value [3] was “performed well”. For the same compound, the “difference of GFP fluorescence result from the BugBuster reagent (FIG. 3)” value [4] was no more than 7%, the “difference of β-galactosidase extraction performance from the BPER-2 reagent (FIG. 4)” value [5] was no more than 5% and the MBP extraction (BL21 Star cultures) was “similarly or slightly better”.

For `CCCCCCCCCCCCP(C)(C)=O` [APO-12, Dimethyldodecylphosphine oxide], the “lysis of uninduced BL21 Star cells” value [2] was “did not lyse the cells efficiently”.

For `O=S(=O)(O)CCN(CCO)CCO` [BES], the “pKa(4° C.)” value [1] is listed as 7.41, the “pKa(20° C.)” value [1] is listed as 7.5 and the “pKa(37° C.)” value [1] is listed as 6.88. For the same compound, the “Temperature Coefficient (↑pKa/° C.)” value [1] was 0.016 ↑pKa/° C.

In the case of `O=C(O)CN(CCO)CCO` [Bicine], the “pKa(4° C.)” value [1] is listed as 8.64, the “pKa(37° C.)” value [1] is listed as 8.04 and the “Temperature Coefficient (↑pKa/° C.)” value [1] is listed as 0.018 ↑pKa/° C.

For `Cl.NCC(N)=O` [Glycinamide HCL], the “pKa(4° C.)” value [1] is given as 8.66, the “pKa(20° C.)” value [1] is given as 8.20 and the “pKa(37° C.)” value [1] is given as 7.71. The “Temperature Coefficient (↑pKa/° C.)” value [1] was 0.029 ↑pKa/° C.

In the case of `NCC(=O)NCC(=O)O` [Glycylglycine] (H-Gly-Gly-OH), the “pKa(4° C.)” value [1] is given as 8.85, the “pKa(37° C.)” value [1] is given as 7.92 and the “Temperature Coefficient (↑pKa/° C.)” value [1] is given as 0.028 ↑pKa/° C.

For `O=S(=O)(O)CCCN1CCN(CCO)CC1` [HEPPS], the “pKa(4° C.)” value [1] is given as 8.18, the “pKa(20° C.)” value [1] is given as 8.00 and the “pKa(37° C.)” value [1] is given as 7.81. For the same compound, the “Temperature Coefficient (↑pKa/° C.)” value [1] was 0.011 ↑pKa/° C.

In the case of `O=S(=O)(O)CCNC(CO)(CO)CO` [TES], the “pKa(4° C.)” value [1] is given as 7.82, the “pKa(20° C.)” value [1] is given as 7.50 and the “pKa(37° C.)” value [1] is given as 7.16. For the same compound, the “Temperature Coefficient (↑pKa/° C.)” value [1] was 0.020 ↑pKa/° C.

In the case of `O=C(O)CNC(CO)(CO)CO` [TRICINE], the “pKa(4° C.)” value [1] is given as 8.49, the “pKa(37° C.)” value [1] is given as 7.79 and the “Temperature Coefficient (↑pKa/° C.)” value [1] is given as 0.021 ↑pKa/° C.

For `CCCCCCCCCCCCO[C@@H]1O[C@H](CO)[C@@H](O[C@H]2O[C@H](CO)[C@@H](O)[C@H](O)[C@H]2O)[C@H](O)[C@H]1O` [n-dodecyl-β-D-maldoside], the lysis performance [2] was “good lysis performance”.

In the case of `CCCCCCCCCO[C@@H]1O[C@H](CO)[C@@H](O)[C@H](O)[C@H]1O` [n-nonyl-β-D-glucopyranoside], the lysis performance [2] is reported as “good lysis performance” and the “performance as lysis reagent” value [3] is reported as “performed well”.

With `CCCCCCCCO[C@@H]1O[C@H](CO)[C@@H](O)[C@H](O)[C@H]1O` [n-octyl-β-D-glucopyranoside] the lysis performance [2] was “good lysis performance”, the “performance as lysis reagent” value [3] was “performed well” and the MBP extraction (BL21 Star cultures) was “comparable”.

With `CCCCCCCCS[C@@H]1O[C@H](CO)[C@@H](O)[C@H](O)[C@H]1O` [n-octyl-β-D-thioglucopyranoside] the lysis performance [2] was “good lysis performance” and the “performance as lysis reagent” value [3] was “performed well”.

In the case of N-dodecanoyl sucrose, the “lysis of uninduced BL21 Star cells” value [2] is reported as “did not lyse the cells efficiently”.

In the case of NP-40, the “lysis of bacterial cells” value [2] is reported as “not be very efficient”.

With Triton X-100 the “lysis of bacterial cells” value [2] was “not be very efficient”.

Source: patent US20060183889A1, “Alkyl phosphine detergent products and extraction processes” (priority 2005, published 2006)
